According to US11578073B2, “Xanthine analogs as potent anti-West Nile viral agents” (Southern Research Institute, priority 2019, dated 2023):

Columns and labels:
[1] = cell viability assay (cytotoxicity) in HEK293 cells; assay type: cell-based; details: human, read-out: CC50 (50% cytotoxicity concentration)
[2] = test system: West Nile virus; test: anti-West Nile virus activity of xanthine analogs in HEK293 cells; assay type: cell-based; details: HEK293, read-out: EC90 (effective concentration to inhibit 90% of virus)

SMILES | CC50 [1] [µM] | EC90 [2] [µM]
CC(C)c1ccc(CN2CCN(c3nc4c(c(=O)[nH]c(=O)n4C)n3Cc3ccccc3F)CC2)cc1 [Compound 41, 7-(2-Fluorobenzyl)-8-(4-(4-isopropylbenzyl)piperazin-1-yl)-3-methyl-3,7-dihydro-1H-purine-2,6-dione] | 24 | 1.1
C=C(C)c1ccc(CN2CCN(c3nc4c(c(=O)[nH]c(=O)n4C)n3Cc3ccccc3F)CC2)cc1 [Compound 42, 7-(2-Fluorobenzyl)-3-methyl-8-(4-(4-(prop-1-en-2-yl)benzyl)piperazin-1-yl)-3,7-dihydro-1H-purine-2,6-dione] | 22 | 2.1
Cc1ccc(C)c(C(=O)N2CCN(c3nc4c(c(=O)[nH]c(=O)n4C)n3Cc3ccccc3F)CC2)c1 [Compound 43, 8-(4-(2,5-Dimethylbenzoyl)piperazin-1-yl)-7-(2-fluorobenzyl)-3-methyl-3,7-dihydro-1H-purine-2,6-dione] | > 40 | > 10
Cn1c(=O)[nH]c(=O)c2c1nc(N1CCN(C(=O)c3ccc(C(C)(C)C)cc3)CC1)n2Cc1ccccc1F [Compound 44, 8-(4-(4-(tert-Butyl)benzoyl)piperazin-1-yl)-7-(2-fluorobenzyl)-3-methyl-3,7-dihydro-1H-purine-2,6-dione] | > 30 | 8.8
Cn1c(=O)[nH]c(=O)c2c1nc(N1CCN(C(=O)Cc3ccc(C(C)(C)C)cc3)CC1)n2Cc1ccccc1F [Compound 50, 8-(4-(2-(4-(tert-Butyl)phenyl)acetyl)piperazin-1-yl)-7-(2-fluorobenzyl)-3-methyl-3,7-dihydro-1H-purine-2,6-dione] | > 30 | 3.7
Cn1c(=O)[nH]c(=O)c2c1nc(N1CCC(C)(C)CC1)n2Cc1ccccc1F [Compound 52, 8-(4,4-Dimethylpiperidin-1-yl)-7-(2-fluorobenzyl)-3-methyl-3,7-dihydro-1H-purine-2,6-dione] | > 30 | 3.9
Cn1c(=O)[nH]c(=O)c2c1nc(N1CCC(c3ccccc3)CC1)n2Cc1ccccc1F [Compound 56, 7-(2-Fluorobenzyl)-3-methyl-8-(4-phenylpiperidin-1-yl)-3,7-dihydro-1H-purine-2,6-dione] | 10.7 | 2.4
Cn1c(=O)[nH]c(=O)c2c1nc(N1CCC(c3cccc(F)c3)CC1)n2Cc1ccccc1F [Compound 57, 7-(2-Fluorobenzyl)-8-(4-(3-fluorophenyl)piperidin-1-yl)-3-methyl-3,7-dihydro-1H-purine-2,6-dione] | > 30 | 4.4
CC(C)(C)c1ccc(CN2CCN(c3nc4[nH]c(=O)[nH]c(=O)c4n3Cc3ccccc3F)CC2)cc1 [Compound 64, 8-(4-(4-(tert-butyl)benzyl)piperazin-1-yl)-7-(2-fluorobenzyl)-3,7-dihydro-1H-purine-2,6-dione] | 10 | 9
